Results: PubChem BioAssay (NCI)
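48-hour exposure; five concentrations; linearly interpolated endpoints. At the TGI there is no net growth.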

Legend:
Assay in all cases: NCI-60 cell line screen, 48 h
HOP-92 NSCLC = test system: HOP-92 NSCLC
SNB-75 CNS = test system: SNB-75 CNS
K-562 leukemia = test system: K-562 leukemia
NCI/ADR-RES ovarian = test system: NCI/ADR-RES ovarian
HT29 colon = test system: HT29 colon
MALME-3M melanoma = test system: MALME-3M melanoma
SK-MEL-28 melanoma = test system: SK-MEL-28 melanoma
SR leukemia = test system: SR leukemia
NCI-H226 lung = test system: NCI-H226 lung
HCT-116 colon = test system: HCT-116 colon
KM12 colon = test system: KM12 colon
786-0 renal = test system: 786-0 renal
M14 melanoma = test system: M14 melanoma
SF-295 CNS = test system: SF-295 CNS
SF-539 CNS = test system: SF-539 CNS
HCC-2998 colon = test system: HCC-2998 colon

SMILES	TGI (HOP-92 NSCLC)	TGI (SNB-75 CNS)	TGI (K-562 leukemia)	TGI (NCI/ADR-RES ovarian)	TGI (HT29 colon)	TGI (MALME-3M melanoma)	TGI (SK-MEL-28 melanoma)	TGI (SR leukemia)	TGI (NCI-H226 lung)	TGI (HCT-116 colon)	TGI (KM12 colon)	TGI (786-0 renal)	TGI (M14 melanoma)	TGI (SF-295 CNS)	TGI (SF-539 CNS)	TGI (HCC-2998 colon)
Cc1ccc(CC(Cc2ccccc2C)C(=O)O)c(C(=O)O)c1 (stereo not given)	> 100 µM	> 100 µM	> 100 µM	> 100 µM	> 100 µM	> 100 µM	> 100 µM	> 100 µM	> 100 µM	> 100 µM	> 100 µM	> 100 µM	> 100 µM	> 100 µM	> 100 µM	> 100 µM
CC[C@]12C=CCN3CC[C@@]4(c5cc(N=O)c(OC)cc5N(C)[C@H]4[C@@](O)(C(=O)OC)[C@@H]1OC(C)=O)[C@@H]32	> 100 µM	> 100 µM	> 100 µM	> 100 µM	> 100 µM	> 100 µM	> 100 µM	> 100 µM	> 100 µM	> 100 µM	> 100 µM	> 100 µM	> 100 µM	> 100 µM	66.5 µM	> 100 µM
CC(C)CC(NC(=O)C(C)(CI)Cc1ccccc1)C(=O)Nc1ccccc1 (stereo not given)	> 100 µM	> 100 µM	> 100 µM	> 100 µM		> 100 µM		> 100 µM	> 100 µM	> 100 µM	> 100 µM	> 100 µM	> 100 µM	> 100 µM	> 100 µM	> 100 µM
O=C1NC2c3c(I)sc(I)c3C(=O)C2O1 (stereo not given)	10.1 µM	25.8 µM	> 59.9 µM	34.1 µM	3.25 µM	6.88 µM	21.5 µM	13.9 µM	20.4 µM	6.87 µM	24.3 µM	20.9 µM	5.23 µM	30.5 µM	4.92 µM	15.5 µM
Cc1ccc(O)c(Cc2nc3ccccc3nc2-c2cccc(Cl)c2)c1	78.5 µM		> 100 µM	> 100 µM	> 100 µM	> 100 µM		> 100 µM	> 100 µM	> 100 µM	> 100 µM	> 100 µM	> 100 µM	> 100 µM	> 100 µM	> 100 µM
O=c1c2cc(-c3ccccc3)cnc2sn1-c1ccc(Br)cc1	> 100 µM	> 100 µM	> 100 µM	> 100 µM	> 100 µM	> 100 µM	> 100 µM	> 100 µM	> 100 µM	> 100 µM	> 100 µM	> 100 µM	> 100 µM	> 100 µM	> 100 µM	> 100 µM
O=C1/C(=C/c2cccc(Cl)c2)CCCc2ccccc21	60.4 µM	> 100 µM	34 µM	35.9 µM	30.9 µM	33.8 µM	33.6 µM	35.2 µM	30.7 µM	26.1 µM	32.3 µM	33.7 µM	29.9 µM	31.6 µM	32.1 µM	32.5 µM
CCOC(=O)Cc1csc(NC(NC(=O)OCC)(C(=O)OCC)C(F)(F)F)n1 (stereo not given)	> 100 µM	> 100 µM	> 100 µM	> 100 µM	> 100 µM	> 100 µM	> 100 µM	> 100 µM	> 100 µM	> 100 µM	> 100 µM	> 100 µM	> 100 µM	> 100 µM	> 100 µM	> 100 µM
COC(=O)c1c([N+](=O)[O-])ncn1[C@H]1OC[C@@H](OC(C)=O)[C@@H](OC(C)=O)[C@@H]1OC(C)=O	> 100 µM	> 100 µM	> 100 µM	> 100 µM	> 100 µM	> 100 µM	> 100 µM	> 100 µM	> 100 µM	> 100 µM	> 100 µM	> 100 µM	> 100 µM	> 100 µM	> 100 µM	> 100 µM
O=C(Nc1ccccc1)c1cc(S(=O)(=O)Nc2n[nH]c(=O)n2-c2ccccc2)c(S)cc1Cl	> 100 µM	> 100 µM	> 100 µM	> 100 µM	> 100 µM	> 100 µM	> 100 µM	> 100 µM	> 100 µM	> 100 µM	> 100 µM	> 100 µM	> 100 µM		> 100 µM	> 100 µM
Cc1ccc2c(=O)cc(-c3sccc3C)[nH]c2n1	> 100 µM	> 100 µM	> 100 µM	0.693 µM	8.72 µM	> 69.1 µM		> 61.1 µM	6.55 µM	18.7 µM	> 59.5 µM	> 67.8 µM	> 34.4 µM	> 100 µM	1.79 µM	7.13 µM
